ChEMBL document CHEMBL1201862, “PubChem BioAssay data set” (2004)
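Values below derive from 48-hour exposures of cells grown in 96-well plates, with endpoints linearly interpolated between the two concentrations bracketing the appropriate inhibition level. At the GI50, growth is halved.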 Active and inactive are the calls of the source. Rule as the data show it: active = GI50 up to about 1.1 µM and inactive = higher.

Tests used:
Test in all cases: inhibition of tumour cell growth, NCI panel, 48 h
IGROV-1 = system: IGROV-1
SW-620 = system: SW-620
M14 = system: M14
CCRF-CEM = system: CCRF-CEM
Malme-3M = system: Malme-3M
SN12C = system: SN12C
LOX IMVI = system: LOX IMVI
UACC-62 = system: UACC-62
K562 = system: K562
SK-MEL-2 = system: SK-MEL-2
RPMI-8226 = system: RPMI-8226
SF-268 = system: SF-268
CAKI-1 = system: CAKI-1
HCT-116 = system: HCT-116
HCC 2998 = system: HCC 2998

Measured: GI50

COc1ccc(S(=O)(=O)NC(C)C(=O)O)cc1 (stereo not given)
inactive: IGROV-1 > 100 µM | SW-620 > 100 µM | M14 > 100 µM | CCRF-CEM > 100 µM | Malme-3M > 100 µM | SN12C > 100 µM | LOX IMVI > 100 µM | UACC-62 > 100 µM | K562 > 100 µM | SK-MEL-2 > 100 µM | RPMI-8226 > 100 µM | SF-268 > 100 µM | CAKI-1 > 100 µM

CCCN(CCC)CCc1cc(C(C)=O)n(S(=O)(=O)c2ccc(C)cc2)c1
inactive: IGROV-1 > 100 µM | SW-620 > 100 µM | M14 20.3 µM | HCT-116 > 100 µM | CCRF-CEM > 100 µM | Malme-3M > 100 µM | SN12C > 100 µM | UACC-62 > 100 µM | K562 80.9 µM | SK-MEL-2 > 100 µM | RPMI-8226 > 100 µM | SF-268 > 100 µM | CAKI-1 84.7 µM | HCC 2998 > 100 µM

COc1c(C(C)C)cc2c3c1OC(=O)[C@@]31CCCC(C)(C)C1CC2 (stereo not given in full)
inactive: IGROV-1 23.1 µM | SW-620 26.4 µM | M14 33.5 µM | HCT-116 9.2 µM | CCRF-CEM 18.5 µM | Malme-3M 27.2 µM | SN12C 51.9 µM | LOX IMVI 12.5 µM | UACC-62 24.4 µM | K562 20.4 µM | SK-MEL-2 28.1 µM | RPMI-8226 18.9 µM | SF-268 28.7 µM | CAKI-1 > 100 µM | HCC 2998 50.2 µM

O=c1c2cccc3cccc(c4n1CCN=4)c32
inactive: IGROV-1 82.6 µM | SW-620 > 100 µM | M14 73.1 µM | HCT-116 57.8 µM | CCRF-CEM 80.2 µM | Malme-3M > 100 µM | SN12C > 100 µM | LOX IMVI 32 µM | UACC-62 84.5 µM | K562 > 100 µM | SK-MEL-2 63.7 µM | RPMI-8226 > 100 µM | SF-268 > 100 µM | CAKI-1 63.4 µM

CCCCCCCCCCCCN(O)C(=O)c1ccccc1
inactive: IGROV-1 37.8 µM | SW-620 34 µM | M14 21.2 µM | HCT-116 42 µM | CCRF-CEM 3.82 µM | Malme-3M 17.5 µM | SN12C 17.1 µM | LOX IMVI 20.5 µM | UACC-62 19.7 µM | K562 18.9 µM | SK-MEL-2 47 µM | RPMI-8226 15.1 µM | SF-268 15.1 µM | HCC 2998 30.3 µM

N#C/C(=C/Sc1ccccc1)C(=O)O
inactive: IGROV-1 17.9 µM | SW-620 41.2 µM | M14 22 µM | HCT-116 17.4 µM | CCRF-CEM 9.25 µM | SN12C 20 µM | LOX IMVI 10.6 µM | UACC-62 26 µM | K562 43.1 µM | SK-MEL-2 24.7 µM | RPMI-8226 24.5 µM | SF-268 8.59 µM | CAKI-1 27.3 µM

CCC12CCCC(=O)N1C(CO)C(c1ccccc1)O2 (stereo not given)
inactive: IGROV-1 > 100 µM | SW-620 > 100 µM | HCT-116 > 100 µM | CCRF-CEM > 100 µM | Malme-3M > 100 µM | SN12C > 100 µM | LOX IMVI > 100 µM | UACC-62 > 100 µM | K562 > 100 µM | SK-MEL-2 > 100 µM | RPMI-8226 > 100 µM | SF-268 > 100 µM | CAKI-1 > 100 µM

CC(=O)Nc1ccc(C2CC(c3ccc([N+](=O)[O-])cc3)=Nc3ccccc3[S+]2[O-])cc1 (stereo not given)
inactive: IGROV-1 12.7 µM | SW-620 20 µM | M14 27.9 µM | CCRF-CEM 11.4 µM | Malme-3M > 10 µM | SN12C 24.5 µM | LOX IMVI 14.7 µM | UACC-62 11.6 µM | K562 4.58 µM | SK-MEL-2 27.4 µM | RPMI-8226 4.36 µM | SF-268 36.6 µM | CAKI-1 > 10 µM | HCC 2998 16.3 µM

CCOc1ccc2c(c1)[n+]([O-])c(-c1ccccc1)c(N)[n+]2[O-]
inactive: IGROV-1 82.6 µM | SW-620 > 100 µM | M14 81.5 µM | CCRF-CEM 50.7 µM | Malme-3M 66.7 µM | SN12C > 100 µM | LOX IMVI > 100 µM | UACC-62 30.5 µM | K562 45 µM | SK-MEL-2 > 100 µM | RPMI-8226 > 100 µM | SF-268 36.6 µM | CAKI-1 35.6 µM | HCC 2998 68.5 µM

O=C(N/N=C/c1cc(-c2ccccc2Cl)c(-c2ccccc2Cl)o1)c1ccncc1
inactive: IGROV-1 > 100 µM | SW-620 > 100 µM | M14 > 100 µM | HCT-116 > 100 µM | Malme-3M > 100 µM | SN12C > 100 µM | LOX IMVI > 100 µM | UACC-62 > 100 µM | K562 > 10 µM | SK-MEL-2 > 100 µM | RPMI-8226 23.6 µM | SF-268 > 100 µM | CAKI-1 > 100 µM

Clc1ccc(C2=NN(c3ccccc3)C3c4cc(Br)ccc4OCC23)cc1 (stereo not given)
inactive: IGROV-1 > 100 µM | SW-620 > 100 µM | HCT-116 18.6 µM | CCRF-CEM 61.9 µM | Malme-3M 96.4 µM | LOX IMVI 64.3 µM | K562 33.8 µM | SK-MEL-2 > 100 µM | RPMI-8226 11.6 µM | SF-268 53.6 µM | HCC 2998 > 100 µM

N#CC(N)(C(=O)CCC(=O)Nc1cccc(Cl)c1)c1ccc(Cl)cc1 (stereo not given)
inactive: IGROV-1 > 100 µM | SW-620 > 100 µM | M14 > 100 µM | HCT-116 > 100 µM | CCRF-CEM > 100 µM | Malme-3M > 100 µM | SN12C > 100 µM | UACC-62 > 100 µM | K562 > 100 µM | SK-MEL-2 > 100 µM | RPMI-8226 > 100 µM | SF-268 > 100 µM | CAKI-1 > 100 µM

COC(=O)C(C(=O)C(=O)Nc1cccc(OC)c1)c1cnc2ccccc2n1 (stereo not given)
inactive: IGROV-1 > 100 µM | SW-620 > 100 µM | M14 > 100 µM | HCT-116 29.3 µM | CCRF-CEM > 100 µM | Malme-3M > 100 µM | SN12C > 100 µM | LOX IMVI > 100 µM | UACC-62 > 100 µM | K562 > 100 µM | SK-MEL-2 > 100 µM | RPMI-8226 > 100 µM | SF-268 > 100 µM | CAKI-1 > 100 µM | HCC 2998 > 100 µM

COC(=O)/C(Cl)=C1/CC1COCc1ccccc1 (stereo not given)
inactive: IGROV-1 44.9 µM | SW-620 21.1 µM | M14 17 µM | CCRF-CEM 14 µM | Malme-3M 26.6 µM | SN12C 36.6 µM | LOX IMVI > 10 µM | UACC-62 23.9 µM | K562 17.9 µM | SK-MEL-2 31.9 µM | RPMI-8226 19.5 µM | SF-268 43.8 µM | CAKI-1 22.6 µM | HCC 2998 > 10 µM
